Experimental data published in patent US4581354A, “3-arylcarbonyl- and 3-cycloalkylcarbonyl-1-aminoalkyl-1H-indoles, compositions and use” (Sterling Drug Inc., priority 1985, dated 1986).
Structures can show the parent of a compound that is named as a salt. Where two headings read alike, the source gives them in different places.

System: acetylcholine-induced abdominal constriction
Test: animal or person
Format: in vivo, mice
Conditions: Mus musculus; for inhibition in vivo at 100 mg/kg: 100 mg./kg. oral; for inhibition in vivo at 300 mg/kg: 300 mg./kg. oral
Description: The test procedures used to determine the analgesic activities of the compounds have been described in detail in the prior art and are as follows: The acetylcholine-induced abdominal constriction test, which is a primary analgesic screening test designed to measure the ability of a test agent to suppress acetylcholine-induced abdominal constriction in mice, described by Collier et al., Brit. J. Pharmacol. Chemotherap. 32, 295 (1968); a modification of the anti-bradykinin test, which is also a primary analgesic screening procedure, described by Berkowitz et al., J. Pharmacol. Exptl. Therap. 177, 500-508 (1971), Blane et al., J. Pharm. Pharmacol. 19, 367-373 (1967), Botha et al., Eur. J. Pharmacol. 6, 312-321 (1969) and Deffenu et al., J. Pharm. Pharmacol. 18, 135 (1966); and the rat paw flexion test, described by Kuzuna et al., Chem. Pharm. Bull., 23, 1184-1191 (1975), Winter et al., J. Pharm. Exptl. Therap., 211, 678-685 (1979) and Capetola et al., J. Pharm. Exptl. Therap. 214, 16-23 (1980).
Unless noted otherwise, all data were obtained on oral administration and are expressed either as the ED50 or as the percent inhibition at a given dose level (thus 30/100 or 30% inhibition at […].)
In some instances, the compounds were retested two or more times, and ED50 values were calculated for each series of repeat tests. In such instances, each of the ED50 values so-obtained is given in a series of values, thus 6, 28, 30, 43 in the case of the species of Example 1AW in the acetylcholine-induced abdominal constriction test.

[1] = po, read-out: Ach percent inhibition

Row | SMILES | inhibition in vivo at 100 mg/kg [1] [%] | ED50 (po, read-out: Ach ED50) [mg/kg] | also measured
1 | Cc1c(C(=O)c2ccc(C#N)cc2)c2cc(F)ccc2n1CCCN1CCOCC1 [Example 1BL] | 0 | – | –
2 | COc1ccc(C(=O)c2c(C)n(CCN3CCOCC3)c3ccccc23)cc1OC [Example 1AI] | – | 74 | –
3 | Cc1c(C(=O)c2ccc(F)cc2F)c2cc(F)ccc2n1CCN1CCOCC1 [Example 2AH] | 20 | – | –
4 | Cc1c(C(=O)c2ccccc2F)c2cc(F)ccc2n1CCCN1CCOCC1 [Example 2BB, 5-fluoro-3-(2-fluorobenzoyl)-2-methyl-1-[3-(4-morpholinyl)propyl]-1H-indole] | 40 | – | –
5 | COc1ccc(C(=O)c2c(C)n(CC(O)CN3CCC3)c3ccccc23)cc1 (stereo not shown) [Example 31K] | – | 28 | –
6 | O=C(c1ccc(Cl)cc1)c1cn(CCN2CCOCC2)c2ccccc12 [Example 1AR] | – | – | inhibition in vivo at 150 mg/kg (po, 150 mg./kg. oral, read-out: Ach percent inhibition): 27%; inhibition in vivo at 300 mg/kg [1]: 27%; inhibition in vivo at 25 mg/kg (sc, 25 mg./kg. s.c., read-out: Ach percent inhibition): 13%
7 | O=C(c1cccc2ccccc12)c1cn(CCN2CCOCC2)c2ccccc12 [Example 2AL] | – | – | inhibition in vivo at 0.1 mg/kg (iv, 0.1 mg./kg. i.v., read-out: Ach percent inhibition): 20%
8 | COc1ccc(C(=O)c2c(C)n(CCCN(C)CCO)c3ccc(F)cc23)cc1 [Example 3AJ] | – | 35 | –
9 | COc1ccc(C(=O)c2c(C)n(CCN3CCOC(C)C3)c3ccccc23)cc1 (stereo not shown) [Example 3P] | – | 71 | –
10 | Cc1c(C(=O)c2cccc(F)c2)c2ccccc2n1CCN1CCOCC1 [Example 1Y] | 30 | – | –
11 | Cc1c(C(=O)c2ccccc2)c2cc(F)ccc2n1CCCN1CCOCC1 [Example 1BO] | – | 173 | –
12 | Cc1c(C(=O)C=Cc2ccccc2)c2cc(F)ccc2n1CCCN1CCOCC1 [Example 2AG] | – | 143 | –
13 | COc1ccc(C(=O)c2c(C)n(CCN(C)CCO)c3ccccc23)cc1 [Example 3-O] | – | 76 | –
14 | Cc1c(C(=O)C=Cc2ccccc2F)c2ccccc2n1CCN1CCOCC1 [Example 20B, 3-(2-fluorocinnamoyl)-2-methyl-1-[2-(4-morpholinyl)ethyl]-1H-indole] | 40 | – | –
15 | Cc1c(C(=O)c2ccccc2F)c2cc(F)ccc2n1C(C)CCN1CCOCC1 (stereo not shown) [Example 1BW] | 10 | – | –
16 | COc1ccc(C(=O)c2c(C)n(CC[N+]3([O-])CCOCC3)c3ccccc23)cc1 [Example 15, 2-methyl-3-(4-methoxybenzoyl)-1-[2-(4-morpholinyl)ethyl]-1H-indole/N(MOR)-oxide] | – | 155 | –
17 | Cc1c(C(=O)c2ccc(F)cc2)c2ccccc2n1CCN1CCOCC1 [Example 1Q, 3-(4-fluorobenzoyl)-2-methyl-1-[2-(4-morpholinyl)ethyl]-1H-indole] | – | – | inhibition in vivo at 24 mg/kg (po, 24 mg./kg. oral, read-out: Ach percent inhibition): 7%; inhibition in vivo at 79 mg/kg (po, 79 mg./kg. oral, read-out: Ach percent inhibition): 27%; inhibition in vivo at 238 mg/kg (po, 238 mg./kg. oral, read-out: Ach percent inhibition): 60%; inhibition in vivo at 435 mg/kg (po, 435 mg./kg. oral, read-out: Ach percent inhibition): 67%; inhibition in vivo at 793 mg/kg (po, 793 mg./kg. oral, read-out: Ach percent inhibition): 60%; inhibition in vivo at 1000 mg/kg (po, 1000 mg./kg. oral, read-out: Ach percent inhibition): 67%
18 | Cc1c(C(=O)c2ccc3[nH]cnc3c2)c2ccccc2n1CCN1CCOCC1 [Example 2BF] | 30 | – | –
19 | Cc1c(C(=O)c2cccc3ccccc23)c2ccccc2n1CCN1CCNCC1 [Example 3I] | 30 | – | –
20 | COc1ccc(C(=O)c2c(C)n(CCN3CCC(O)CC3)c3ccccc23)cc1 [Example 3A, 2-methyl-3-(4-methoxybenzoyl)-1-[2-(4-hydroxy-1-piperidinyl)ethyl]-1H-indole hydrochloride hemihydrate] | – | 68.1 | –
21 | Cc1c(C(=O)c2ccoc2)c2ccccc2n1CCN1CCOCC1 [Example 2BC] | 10 | – | –
22 | Cc1c(C(=O)c2csc3ccccc23)c2ccccc2n1CCN1CCOCC1 [Example 1T] | – | 106 | ED50 (iv, read-out: Ach ED50): 3.8 mg/kg
23 | Cc1c(C(=O)c2ccc(N3CCC(O)CC3)cc2)c2ccccc2n1CCN1CCOCC1 [Example 26D] | 30 | – | –
24 | CCOc1ccc(C(=O)c2c(C)n(CCN3CCOCC3)c3ccccc23)cc1 [Example 1BH] | 27 | – | inhibition in vivo at 10 mg/kg (iv, 10 mg./kg. i.v., read-out: Ach percent inhibition): 50%; inhibition in vivo at 30 mg/kg (po, 30 mg./kg. oral, read-out: Ach percent inhibition): 0%; inhibition in vivo at 300 mg/kg [1]: 53%; inhibition in vivo at 550 mg/kg (po, 550 mg./kg. oral, read-out: Ach percent inhibition): 58%; inhibition in vivo at 30 mg/kg (sc, 30 mg./kg. s.c., read-out: Ach percent inhibition): 7%

Row | SMILES | inhibition in vivo at 100 mg/kg [1] [%] | ED50 (po, read-out: Ach ED50) [mg/kg] | also measured
25 | COc1ccc(C(=O)c2c(C)n(CC(O)CNC(C)C)c3ccccc23)cc1 (stereo not shown) [Example 31M] | – | 26 | –
26 | Cc1c(C(=O)c2ccc(F)cc2)c2ccccc2n1C(C)CN1CCOCC1 (stereo not shown) [Example 2G] | – | 42 | –
27 | CCN(CC)CC(O)Cn1c(C)c(C(=O)c2ccc(OC)cc2)c2ccccc21 (stereo not shown) [Example 31-O] | 100 | – | –
28 | Cc1ccccc1C(=O)c1c(C)n(CCCN2CCOCC2)c2ccc(F)cc12 [Example 2AD] | 10 | – | –
29 | Cc1c(C(=O)c2cccc3ccccc23)c2ccccc2n1C(C)CN1CCOCC1 (stereo not shown) [Example 2AK] | – | – | inhibition in vivo at 0.3 mg/kg (iv, 0.3 mg./kg. i.v., read-out: Ach percent inhibition): 30%
30 | Cc1cc2cc(F)ccc2n1C(C)CN(C)C (stereo not shown) [Preparation 8, 5-fluoro-2-methyl-1-(1-methyl-2-dimethylaminoethyl)-1H-indole] | – | – | ED50 (po, Preparations, read-out: ED50 in acetylcholine-induced abdominal constriction test): 25 mg/kg
31 | COc1ccc(C(=O)c2c(C)n(CCCN3CC[S+]([O-])CC3)c3ccc(F)cc23)cc1 [Example 29A, 5fluoro-2-methyl-3-(4-methoxybenzoyl)-1-[3-(4-thiomorpholinyl)propyl]-1H-indole S-oxide maleate] | 60 | – | –
32 | COc1ccc(C(=O)c2c(C)n(CC(O)CN3CCOCC3)c3ccc(F)cc23)cc1.Cl.O (stereo not shown) [Example 31A, 1-[2-hydroxy-3-(4-morpholinyl)propyl]-5-fluoro-2-methyl-3-(4-methoxybenzoyl)-1H-indole hydrochloride hydrate] | – | 58 | –
33 | COc1ccc(C(=O)c2c(-c3ccccc3)n(CCN3CCOCC3)c3ccccc23)cc1 [Example 1AJ] | 13 | – | inhibition in vivo at 300 mg/kg [1]: 53%
34 | COc1ccc(C(=O)c2c(C)n(CCCCN3CCOCC3)c3ccc(F)cc23)cc1 [Example 1CJ] | – | 56 | –
35 | COc1ccc(C(=O)c2c(C)n(CCN3CCOCC3)c3c(C)cccc23)cc1 [Example 1E] | 0 | – | –
36 | Cc1c(C(=O)c2ccc(Cl)c(Cl)c2)c2ccccc2n1CCN1CCOCC1 [Example 1AS] | – | – | inhibition in vivo at 300 mg/kg [1]: 33%
37 | Cc1c(C(=O)c2ccc(S(C)(=O)=O)cc2)c2ccccc2n1CCN1CCOCC1 [Example 2-O] | 20 | – | –
38 | COc1ccc(C(=O)c2c(C)n(CCN3CC[S+]([O-])CC3)c3ccccc23)cc1 [Example 29B, 2-methyl-3-(4-methoxybenzoyl)-1-[2-(4-thiomorpholinyl)ethyl]-1H-indole S-oxide maleate] | 60 | – | –
39 | COc1ccc(C(=O)c2c(C)n(CCCN3CCCC3)c3ccccc23)cc1 [Example 1CF] | – | 24 | –
40 | Cc1c(C(=O)c2cccn2C)c2ccccc2n1CCN1CCOCC1 [Example 2T] | 30 | – | –
41 | COc1ccc(C(=O)c2c(C)n(CCNCCO)c3ccccc23)cc1 [Example 27B, 1-[2-(2-hydroxyethylamino)ethyl]-2-methyl-3-(4-methoxybenzoyl)-1H-indole] | – | 59.8 | –
42 | COc1ccc(C(=O)c2c(C)n(CCCN3CCNCC3)c3ccc(F)cc23)cc1.CS(=O)(=O)O.CS(=O)(=O)O [Example 27D, 5-fluoro-2-methyl-3-(4-methoxybenzoyl)-1-[3-(1-piperazinyl)propyl]-1H-indole dimethanesulfonate] | – | 30 | –
43 | Cc1c(C(=O)c2ccc(-n3ccnc3)cc2)c2ccccc2n1CCN1CCOCC1 [Example 26E] | – | 73.1 | –
44 | Cc1ccccc1C=CC(=O)c1c(C)n(CCN2CCOCC2)c2ccccc12 [Example 20A, 3-(2-methylcinnamoyl)-2-methyl-1-[2-(4-morpholinyl)ethyl]-1H-indole] | – | 128 | –
45 | COc1ccc(C(=O)c2c(C)n(CCN3CCCCC3CC3CCCCC3)c3ccccc23)cc1 (stereo not shown) [Example 3Q] | 40 | – | –
46 | COc1ccc(C(=O)c2c(C)n(CCCN)c3ccc(F)cc23)cc1.O=C(O)/C=C\C(=O)O [Example 25A, 1-(3-aminopropyl)-5-fluoro-2-methyl-3-(4-methoxybenzoyl)-1H-indole maleate (1:1)] | – | 82.5 | –
47 | Cc1c(C(=O)c2ccc3occc3c2)c2ccccc2n1CCN1CCOCC1 [Example 2AM] | 80 | – | –
